Source: patent US9573954B2, “Pyrazolopyrimidine compounds” (University Health Network, priority 2012, dated 2017)
Where two headings read alike, the source gives them in different places.

Columns and labels:
[1] = system: colon cancer cells (HCT116); experiment: Cancer cell line growth inhibition, Sulforhodamine B assay, HCT116; type: cell-based; settings: Homo sapiens, HCT-116, HCT116 colon cancer cell line; read-out: Cancer Cell Line GI50 Range HCT116
Procedure: (§1) Breast cancer cells (MDA-MB-231 and MDA-MB-468), colon cancer cells (HCT116) and ovarian cancer cells (PA-1 and OVCAR-3) were seeded (1000 to 4000 in 80 μl per well depending on the cell growth rate) into 96 well plates 24 hours before compound overlay. Compounds were prepared as 10 mM stock solutions in 100% DMSO which were diluted with DMEM (Dulbecco's Modified Eagle's Medium) cell growth Medium (Invitrogen, Burlington, ON, Canada) containing 10% FBS (Fetal Bovine Serum) to concentrations ranging from 50 nM to 250 μM. Aliquots (20 μl) from each concentration were overlaid to 80 μl of the pre-seeded cells in the 96 well plates to make final concentrations of 10 nM to 50 μM. The cells were cultured for 5 days before the Sulforhodamine B assay (SRB) was performed to determine the compound's cell growth inhibition activity.
(§2) Sulforhodamine B (purchased from Sigma, Oakville, ON, Canada) is a water-soluble dye that binds to the basic amino acids of the cellular proteins. Thus, colorimetric measurement of the bound dye provides an estimate of the total protein mass that is related to the cell number. the cells are fixed in situ by gently aspirating off the culture media and adding 50 μl ice cold 10% Trichloroacetic Acid (TCA) per well and incubate at 4° C. for 30-60 min, The plates are washed with H2O five times and allowed to air dry for 5 min. Addition of 50 μl 0.4% (w/v) SRB solution in 1% (v/v) acetic acid to each well and incubation for 30 min at RT completes the staining reaction. Following staining, plates are washed four times with 1% acetic acid to remove unbound dye and then allowed to air dry for 5 min. The stain is solubilized with 100 μl of 10 mM Tris pH 10.5 per well. Absorbance is read at 570 nm.
(§3) The percentage (%) of relative growth inhibition was calculated by comparing to DMSO treated only cells (100%). GI50's were determined for compounds with cytotoxic activity. The GI50 was calculated using GraphPad PRISM software (GraphPad Software, Inc., San Diego, Calif., USA).
(§4) In Table 1 below, GI50 value ranges for compound examples against breast cancer cell lines (MDA-MB-468), colon cancer cell lines (HCT116) and ovarian cancer cell lines (PA-1) are given.
In Table 2 below, GI50 value ranges for compound examples against breast cancer cell lines (MDA-MB-231), colon cancer cell lines (HCT116) and ovarian cancer cell lines (PA-1) are given.
(§5) In Table 3 below, GI50 value ranges for compound examples against breast cancer cell lines (MDA-MB-468), colon cancer cell lines (HCT116) and ovarian cancer cell lines (OVCAR-3) are given.

human TTK = biological target: T1, human TTK (Homo sapiens, UniProt P33981); experiment: TTK inhibition assay (indirect ELISA); type: biochemical
T1 construct: Active TTK was purchased from Invitrogen as an amino terminal GST fusion of full length human TTK; purchased Invitrogen
T1 sequence (P33981 1-857): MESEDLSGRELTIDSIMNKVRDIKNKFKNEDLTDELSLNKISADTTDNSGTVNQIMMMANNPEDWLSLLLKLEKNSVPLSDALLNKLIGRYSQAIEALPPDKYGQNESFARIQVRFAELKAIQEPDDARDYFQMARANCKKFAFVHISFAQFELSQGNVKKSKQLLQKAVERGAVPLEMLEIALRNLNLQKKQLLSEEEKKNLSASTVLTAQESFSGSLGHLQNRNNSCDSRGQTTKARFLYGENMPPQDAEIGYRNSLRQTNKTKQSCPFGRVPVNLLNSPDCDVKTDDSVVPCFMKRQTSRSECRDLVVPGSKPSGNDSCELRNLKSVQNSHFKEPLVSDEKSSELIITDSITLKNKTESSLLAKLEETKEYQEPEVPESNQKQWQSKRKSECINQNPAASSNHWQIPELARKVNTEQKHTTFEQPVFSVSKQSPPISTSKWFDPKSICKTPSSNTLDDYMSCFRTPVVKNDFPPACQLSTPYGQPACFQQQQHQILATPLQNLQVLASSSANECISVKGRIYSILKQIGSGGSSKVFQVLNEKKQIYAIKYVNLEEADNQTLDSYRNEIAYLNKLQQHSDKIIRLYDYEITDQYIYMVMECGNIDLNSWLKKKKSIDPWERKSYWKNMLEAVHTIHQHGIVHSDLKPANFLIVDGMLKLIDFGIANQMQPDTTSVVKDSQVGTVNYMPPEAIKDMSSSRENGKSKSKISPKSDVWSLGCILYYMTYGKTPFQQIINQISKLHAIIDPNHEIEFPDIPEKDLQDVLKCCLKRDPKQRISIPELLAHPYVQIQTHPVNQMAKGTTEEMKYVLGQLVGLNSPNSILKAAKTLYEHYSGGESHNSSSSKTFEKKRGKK
Procedure: Active TTK was purchased from Invitrogen as an amino terminal GST fusion of full length human TTK.
TTK activity was measured using an indirect ELISA detection system.
Compounds were pre-incubated in the presence of enzyme for 5 minutes prior to addition of ATP and the activity remaining quantified using the above described activity assay. The % Inhibition of a compound was determined using the following formula; % Inhibition=100×(1−(experimental value−background value)/(high activity control−background value)). The IC50 value was determined using a non-linear 4 point logistic curve fit (XLfit4, IDBS) with the formula; (A+(B/(1+((x/C)^D)))), where A=background value, B=range, C=inflection point, D=curve fit parameter.

[2] = system: ovarian cancer cells (OVCAR-3); experiment: Cancer cell line growth inhibition, Sulforhodamine B assay, OVCAR-3; type: cell-based; settings: Homo sapiens, read-out: Cancer Cell Line GI50 Range OVCAR-3
Procedure: as §1, §2, §3, §5

[3] = system: breast cancer cells (MDA-MB-468); experiment: Cancer cell line growth inhibition, Sulforhodamine B assay, MDA-MB-468; type: cell-based; settings: Homo sapiens, read-out: Cancer Cell Line GI50 Range MDA-MB-468
Procedure: as §1, §2, §3, §4, §5

[4] = 16 μM ATP (Sigma cat# A7699), read-out: TTK IC50 Range (denoted with an asterisk)
[5] = OVCAR-3, OVCAR-3 ovarian cancer cell line
[6] = MDA-MB-468, MDA-MB-468 breast cancer cell line
[7] = 100 μM ATP, read-out: TTK IC50 Range
[8] = OVCAR-3 ovarian cancer cell line
[9] = MDA-MB-468 breast cancer cell line

SMILES	GI50 [1] [nM]	GI50 [2, 5] [nM]	GI50 [3, 6] [nM]	IC50 (human TTK; [7]) [nM]	further results
O=C(NC1CC1)c1ccc(-c2cnn3c(NCC4CCOCC4)nc(Nc4ccccc4)nc23)cc1Cl [Example C9]	> 500	100 to 500	> 500	–	IC50 (human TTK; [4]): < 100 nM
Cc1cc(-c2cnn3c(NCC4CCOCC4)nc(NC4CCCCC4)nc23)ccc1C(=O)NC1CC1 [Example C22]	100 to 500	100 to 500	100 to 500	–	IC50 (human TTK; [4]): < 100 nM
Cc1cc(-c2cnn3c(NCCN4CCOCC4)nc(Oc4cccc(F)c4)nc23)ccc1C(=O)NC1CC1 [Example C27]	≤ 100	100 to 500	100 to 500	–	IC50 (human TTK; [4]): < 100 nM
Cc1cc(-c2cnn3c(NCC4CCOCC4)cc(Oc4ccc[n+]([O-])c4)nc23)ccc1C(=O)NC1CC1 [Example C30, 3-((3-(4-(cyclopropylcarbamoyl)-3-methylphenyl)-7-(((tetrahydro-2H-pyran-4-yl)methyl)amino)pyrazolo[1,5-a]pyrimidin-5-yl)oxy)pyridine-1-oxide]	> 500	> 500	> 500	< 100	–
Cc1cc(-c2cnn3c(NC[C@H]4C[C@@](C)(O)C4)cc(Oc4cccnc4)nc23)ccc1C(=O)NC1CC1 [Example C43, N-cyclopropyl-4-(7-((((1s,3s)-3-hydroxy-3-methylcyclobutyl)methyl)amino)-5-(pyridin-3-yloxy)pyrazolo[1,5-a]pyrimidin-3-yl)-2-methylbenzamide]	≤ 100	–	–	–	GI50 [2, 8]: ≤ 100 nM; GI50 [3, 9]: ≤ 100 nM
Cc1cc(-c2cnn3c(NCC4CCOCC4)cc(NC4CCN(C5COC5)CC4)nc23)ccc1C(=O)NC1CC1 [Example C122]	–	–	–	< 100	–
COC(C)(C)CNc1cc(N[C@H]2CCC[C@H]2O)nc2c(-c3ccc(C(=O)NC4CC4)c(C)c3)cnn12 [Example C129]	–	–	–	< 100	–
Cc1cc(-c2cnn3c(NC[C@H]4C[C@](C)(O)C4)cc(Oc4cccnc4)nc23)ccc1C(=O)NC1CC1 [Example C135]	≤ 100	–	–	–	GI50 [2, 8]: 100 to 500 nM; GI50 [3, 9]: ≤ 100 nM
Cc1cc(-c2cnn3c(NCCCS(C)(=O)=O)cc(NC4CCOCC4)nc23)ccc1C(=O)NC1CC1 [Example C140]	–	–	–	< 100	–
Cc1cc(-c2cnn3c(NCC4CCOCC4)cc(N4CC[C@@H](O)C4)nc23)ccc1C(=O)NC1CC1 [Example C142]	–	–	–	100 to 500	–
Cc1cc(-c2cnn3c(NCC(C)C)cc(Oc4ccncc4)nc23)ccc1C(=O)NC1CC1 [Example C149]	–	–	–	100 to 500	–
Cc1cc(-c2cnn3c(NCC4CCOCC4)cc(N4CC[C@H](CO)C4)nc23)ccc1C(=O)NC1CC1 [Example C166]	–	–	–	< 100	–

The next lines start with results.

GI50 [1] [nM]	GI50 [2, 5] [nM]	GI50 [3, 6] [nM]	IC50 (human TTK; [7]) [nM]	SMILES	further results
100 to 500	100 to 500	100 to 500	–	COCCNc1nc(OC2CCCC2)nc2c(-c3ccc(C(=O)NC4CC4)cc3)cnn12 [Example C8]	IC50 (human TTK; [4]): < 100 nM
> 500	> 500	100 to 500	–	CC(=O)Nc1cccc(Oc2nc(NCC3CCOCC3)n3ncc(-c4ccc(C(=O)NC5CC5)c(C)c4)c3n2)c1 [Example C19]	IC50 (human TTK; [4]): < 100 nM
100 to 500	> 500	> 500	–	Cc1cc(-c2cnn3c(NCC4CCOCC4)nc(NC4CCOCC4)nc23)ccc1C(=O)NC1CC1 [Example C23]	IC50 (human TTK; [4]): < 100 nM
≤ 100	≤ 100	≤ 100	< 100	O=C(NC1CC1)c1ccc(-c2cnn3c(NCCN4CCOCC4)cc(Oc4cccc(F)c4F)nc23)cc1Cl [Example C33, 2-chloro-N-cyclopropyl-4-(5-(2,3-difluorophenoxy)-7-((2-morpholinoethyl)amino)pyrazolo[1,5-a]pyrimidin-3-yl)benzamide]	–
≤ 100	≤ 100	≤ 100	< 100	O=C(NC1CC1)c1ccc(-c2cnn3c(NCCN4CCOCC4)cc(Oc4cccc(F)c4)nc23)cc1Cl [Example C34]	–
≤ 100	≤ 100	≤ 100	< 100	Cc1cc(-c2cnn3c(NC[C@H]4CCOC4)cc(N[C@H]4CCCC[C@H]4O)nc23)ccc1C(=O)NC1CC1 [Example C35, N-cyclopropyl-4-(5-(((1S,2R)-2-hydroxycyclohexyl)amino)-7-((((R)-tetrahydrofuran-3-yl)methyl)amino)pyrazolo[1,5-a]pyrimidin-3-yl)-2-methylbenzamide]	–
–	–	–	< 100	CC[C@H](Nc1cc(NCCN2CCOCC2)n2ncc(-c3ccc(C(=O)NC4CC4)c(C)c3)c2n1)[C@H](C)O [Example C119]	–
–	–	–	< 100	COC(C)(C)CNc1cc(N[C@@H](C(C)C)C(C)(C)O)nc2c(-c3ccc(C(=O)NC4CC4)c(C)c3)cnn12 [Example C128]	–
–	–	–	< 100	Cc1cc(-c2cnn3c(NCCN4CCOCC4)cc(O[C@@H]4CCOC4)nc23)ccc1C(=O)NC1CC1 [Example C137]	–
–	–	–	100 to 500	Cc1cc(-c2cnn3c(NCC(C)C)cc(-c4cccc5ncccc45)nc23)ccc1C(=O)NC1CC1 [Example C154]	–
–	–	–	> 500	CC(C)CNc1cc(-c2cccc3ncccc23)nc2c(-c3ccc(C(=O)NC4CC4)cc3)cnn12 [Example C155]	–
–	–	–	< 100	Cc1cc(-c2cnn3c(NCC(C)C)cc(Nc4cccnc4)nc23)ccc1C(=O)NC1CC1 [Example C160]	–
–	–	–	< 100	Cc1cc(-c2cnn3c(NCC4CCOCC4)cc(N4CC5(CC(O)C5)C4)nc23)ccc1C(=O)NC1CC1 [Example C162]	–
–	–	–	< 100	Cc1cc(-c2cnn3c(NCC4CCOCC4)cc(N4CC[C@@H](CO)C4)nc23)ccc1C(=O)NC1CC1 [Example C167]	–
–	–	–	< 100	Cc1cc(-c2cnn3c(NCCN4CCC(O)CC4)cc(NC4CCCC4)nc23)ccc1C(=O)NC1CC1 [Example C168]	–
–	–	–	< 100	Cc1cc(-c2cnn3c(NCCN4CCC(F)(F)CC4)cc(NC4CCCC4)nc23)ccc1C(=O)NC1CC1 [Example C184]	–
–	–	–	< 100	Cc1cc(-c2cnn3c(NCCN4CCC(F)(F)CC4)cc(Oc4cnn(C)c4)nc23)ccc1C(=O)NC1CC1 [Example C185]	–
